Test results taken from patent US5840684A, “Glycopeptide antibiotic derivatives” (Eli Lilly and Company, priority 1995, dated 1998).
In brackets after ≈: the same amount, converted by molar mass.

Tests used:
[1] = test system: Staphylococcus aureus SA1199B; assay type: cell-based
Procedure: (§1) The MIC's were determined using a standard broth micro-dilution assay.

[2] = test system: Entercoccus faecium 180-1; assay: broth micro-dilution MIC; assay type: cell-based
Procedure: as §1

[3] = test system: Entercoccus faecium 276; assay: broth micro-dilution MIC; assay type: cell-based
Procedure: as §1

[4] = test system: Staphylococcus aureus 446; assay: broth micro-dilution MIC; assay type: cell-based
Procedure: as §1

[5] = test system: Staphylococcus aureus 447; assay: broth micro-dilution MIC; assay type: cell-based
Procedure: as §1

[6] = test system: Staphylococcus aureus 489; assay: broth micro-dilution MIC; assay type: cell-based
Procedure: as §1

[7] = test system: Staphylococcus aureus SA1199A; assay: broth micro-dilution MIC; assay type: cell-based
Procedure: as §1

[8] = test system: Staphylococcus aureus X400; assay: broth micro-dilution MIC; assay type: cell-based
Procedure: as §1

[9] = test system: Entercoccus faecium 180; assay: broth micro-dilution MIC; assay type: cell-based; conditions: Entercoccus faecium 180
Procedure: (§2) The formula I compounds have in vitro and in vivo activity against Gram-positive pathogenic bacteria. The MIC's were determined using a standard broth micro-dilution assay.

[10] = test system: Enterococcus gallinarum 245; assay: broth micro-dilution MIC; assay type: cell-based; conditions: Enterococcus gallinarum 245
Procedure: as §2

[11] = test system: Staphylococcus epidermidis 270; assay: broth micro-dilution MIC; assay type: cell-based
Procedure: as §2

[12] = test system: Staphylococcus haemolyticus 415; assay: broth micro-dilution MIC; assay type: cell-based
Procedure: as §2

[13] = test system: Streptococcus pneumoniae P1; assay: broth micro-dilution MIC; assay type: cell-based
Procedure: as §2

[14] = test system: vancomycin-resistant enterococci; assay: broth micro-dilution, mean geometric MIC; assay type: cell-based, Enterococcus faecium and Enterococcus faecalis; conditions: enterococci, 24-hour incubation
[15] = test system: vancomycin-susceptible enterococci; assay: broth micro-dilution, mean geometric MIC; assay type: cell-based, Enterococcus faecium and Enterococcus faecalis; conditions: enterococci, 24-hour incubation
[16] = test system: Streptococcus pyogenes C203; assay: broth micro-dilution MIC; assay type: cell-based
Procedure: as §1

[17] = test system: Staphylococcus haemolyticus 105; assay: broth micro-dilution MIC; assay type: cell-based
Procedure: as §2

[18] = test system: Staphylococcus aureus S13E; assay type: cell-based
Procedure: as §1

[19] = test system: Staphylococcus aureus X778; assay: broth micro-dilution MIC; assay type: cell-based
Procedure: as §1

[20] = test system: Entercoccus faecium 2041; assay: broth micro-dilution MIC; assay type: cell-based; conditions: Entercoccus faecium 2041
Procedure: as §2

[21] = test system: Staphylococcus aureus SA1199; assay: broth micro-dilution MIC; assay type: cell-based
Procedure: as §1

| Structure (SMILES) | MIC [1] [µg/mL] | MIC [2] [µg/mL] | MIC [3] [µg/mL] | MIC [4] [µg/mL] | MIC [5] [µg/mL] | MIC [6] [µg/mL] | MIC [7] [µg/mL] | MIC [8] [µg/mL] | MIC [9] [µg/mL] | MIC [10] [µg/mL] | MIC [11] [µg/mL] | MIC [12] [µg/mL] | MIC [13] [µg/mL] | mean geometric MIC, Vancomycin Resistant Strains [14] [µg/mL] | mean geometric MIC, Vancomycin Sensitive Strains [15] [µg/mL] | MIC [17] [µg/mL] | MIC [18] [µg/mL] | MIC [19] [µg/mL] | MIC [20] [µg/mL] | further results |
| --- | --- | --- | --- | --- | --- | --- | --- | --- | --- | --- | --- | --- | --- | --- | --- | --- | --- | --- | --- | --- |
| CCOc1ccc2ccccc2c1CNC1(C)CC(OC2C(Oc3c4cc5cc3Oc3ccc(cc3Cl)C(OC3CC(C)(N)C(O)C(C)O3)C3NC(=O)C(NC(=O)C5NC(=O)C(CC(N)=O)NC(=O)C(NC(=O)C(CC(C)C)NC)C(O)c5ccc(c(Cl)c5)O4)c4ccc(O)c(c4)-c4c(O)cc(O)cc4C(C(=O)O)NC3=O)OC(CO)C(O)C2O)OC(C)C1O (stereo not drawn) [Compound 60] | 0.5 (≈ 0.281 µM) | ≤ 0.06 | 0.5 (≈ 0.281 µM) | 1 (≈ 0.563 µM) | 2 (≈ 1.13 µM) | 0.5 (≈ 0.281 µM) | ≤ 0.06 | 0.5 (≈ 0.281 µM) | 4 (≈ 2.25 µM) | 16 (≈ 9.01 µM) | 2 (≈ 1.13 µM) | 16 (≈ 9.01 µM) | ≤ 0.06 | 19 | 3.0 | – | – | – | – | – |
| CNC(CC(C)C)C(=O)NC1C(=O)NC(CC(N)=O)C(=O)NC2C(=O)NC3C(=O)NC(C(=O)NC(C(=O)O)c4cc(O)cc(O)c4-c4cc3ccc4O)C(OC3CC(C)(N)C(O)C(C)O3)c3ccc(c(Cl)c3)Oc3cc2cc(c3OC2OC(CO)C(O)C(O)C2OC2CC(C)(NCCc3ccc(Oc4ccccc4)cc3)C(O)C(C)O2)Oc2ccc(cc2Cl)C1O (stereo not drawn) [Compound 63] | 0.5 (≈ 0.28 µM) | ≤ 0.06 | 0.5 (≈ 0.28 µM) | 0.5 (≈ 0.28 µM) | 1 (≈ 0.559 µM) | 8 (≈ 4.47 µM) | – | ≤ 0.06 | – | 8 (≈ 4.47 µM) | 1 (≈ 0.559 µM) | 8 (≈ 4.47 µM) | ≤ 0.06 | 54 | 0.66 | 4 (≈ 2.24 µM) | – | – | – | MIC [16]: ≤ 0.06 µg/mL |
| CNC(CC(C)C)C(=O)NC1C(=O)NC(CC(N)=O)C(=O)NC2C(=O)NC3C(=O)NC(C(=O)NC(C(=O)O)c4cc(O)cc(O)c4-c4cc3ccc4O)C(OC3CC(C)(N)C(O)C(C)O3)c3ccc(c(Cl)c3)Oc3cc2cc(c3OC2OC(CO)C(O)C(O)C2OC2CC(C)(NCc3cc(C)cs3)C(O)C(C)O2)Oc2ccc(cc2Cl)C1O (stereo not drawn) [Compound 66] | – | ≤ 0.06 | ≤ 0.06 | – | 1 (≈ 0.587 µM) | 1 (≈ 0.587 µM) | ≤ 0.06 | – | 2 (≈ 1.17 µM) | 8 (≈ 4.7 µM) | 1 (≈ 0.587 µM) | 8 (≈ 4.7 µM) | ≤ 0.06 | 16 | 0.76 | – | ≤ 0.06 | ≤ 0.06 | ≤ 0.06 | – |
| CNC(CC(C)C)C(=O)NC1C(=O)NC(CC(N)=O)C(=O)NC2C(=O)NC3C(=O)NC(C(=O)NC(C(=O)O)c4cc(O)cc(O)c4-c4cc3ccc4O)C(OC3CC(C)(N)C(O)C(C)O3)c3ccc(c(Cl)c3)Oc3cc2cc(c3OC2OC(CO)C(O)C(O)C2OC2CC(C)(NCCc3ccc(OCc4ccccc4)cc3)C(O)C(C)O2)Oc2ccc(cc2Cl)C1O (stereo not drawn) [Compound 68] | 0.5 (≈ 0.277 µM) | ≤ 0.06 | ≤ 0.06 | – | – | – | ≤ 0.06 | ≤ 0.06 | 2 (≈ 1.11 µM) | 4 (≈ 2.22 µM) | 2 (≈ 1.11 µM) | 4 (≈ 2.22 µM) | – | 6.7 | – | 2 (≈ 1.11 µM) | ≤ 0.06 | ≤ 0.06 | ≤ 0.06 | MIC [21]: ≤ 0.06 µg/mL |
